ChEMBL document CHEMBL1141942, “Novel 7-methoxy-6-oxazol-5-yl-2,3-dihydro-1H-quinazolin-4-ones as IMPDH inhibitors” (Bioorg Med Chem Lett, 2005)
Values after ≈ are worked out from the molar mass of the structure shown.

Experiments:
[1] = target: T1, Inosine-5'-monophosphate dehydrogenase 2 (Homo sapiens, UniProt P12268); assay: Inhibitory activity against IMPDH II
[2] = test system: PBMC; assay: Antiproliferative activity in PMBC; assay type: functional, cell-based; details: Homo sapiens
[3] = Intrinsic clearance in human liver microsomes; assay type: ADME, Microsome
[4] = Solubility at pH 6.5; assay type: physicochemical; details: buffer
[5] = target: T1, Inosine-5'-monophosphate dehydrogenase 2; details: 10 uM
Description: Inhibitory activity against IMPDH II at 10 uM

SMILES	IC50 [1] [nM]	IC50 [2] [nM]	microsomal CLint [3] [µL/min/mg]	solubility [4] [µg/mL]	inhibition [5] [%]
CCOC(=O)N1CCC2(C1)Nc1cc(OC)c(-c3cnco3)cc1C(=O)N2C (stereo unspecified)	80	1200	24	–	–
COc1cc2c(cc1-c1cnco1)C(=O)N(C)C1(CCN(C(=O)N(C(C)C)C(C)C)C1)N2 (stereo unspecified)	71	70	612	–	–
CCNC(=O)N1CCC2(C1)Nc1cc(OC)c(-c3cnco3)cc1C(=O)N2C (stereo unspecified)	119	7200	11	–	–
COc1cc2c(cc1-c1cnco1)C(=O)N(C)C1(CCN(C(=O)C(C)(C)C)C1)N2 (stereo unspecified)	94	540	46	–	–
COc1cc2[nH]c(=O)n(C)c(=O)c2cc1-c1cnco1	–	4000	–	3 (≈ 11 µM)	–
COC(=O)[C@@H]1C[C@@]2(CN1C(=O)OC(C)(C)C)Nc1cc(OC)c(-c3cnco3)cc1C(=O)N2C	948	–	–	–	–
COc1cc2c(cc1-c1cnco1)C(=O)N(CCc1ccncc1)C(C)(C)N2	300	37000	–	–	–
COc1cc2c(cc1-c1cnco1)C(=O)N(C)C(C)(C)N2	192	21000	–	77 (≈ 268 µM)	–
COc1cc2c(cc1-c1cnco1)C(=O)N(C)C1(CCN(C(=O)N(C)c3ccc(F)cc3F)C1)N2 (stereo unspecified)	51	1200	97	–	–
COC(=O)[C@@H]1C[C@]2(CN1C(=O)OC(C)(C)C)Nc1cc(OC)c(-c3cnco3)cc1C(=O)N2C	369	–	–	–	–
COC(=O)[C@H]1C[C@]2(CN1C(=O)OC(C)(C)C)Nc1cc(OC)c(-c3cnco3)cc1C(=O)N2C	35	1500	18	–	–
COc1cc2c(cc1-c1cnco1)C(=O)N(C)C1(CCOCC1)N2	526	11600	–	–	–
COc1cc2c(cc1-c1cnco1)C(=O)N(C)C1(CCN(C(=O)Nc3ccccc3)C1)N2 (stereo unspecified)	393	16000	19	–	–
COc1cc2c(cc1-c1cnco1)C(=O)N(C)C(C)(/C=C/c1ccccc1)N2 (stereo unspecified)	49	3000	–	–	–
COc1cc2c(cc1-c1cnco1)C(=O)N(C)C1(CCCC1)N2	328	8500	–	–	–
COC(=O)[C@H]1C[C@@]2(CN1C(=O)OC(C)(C)C)Nc1cc(OC)c(-c3cnco3)cc1C(=O)N2C	–	–	–	–	26
COc1cc2c(cc1-c1cnco1)C(=O)N(C)C1(CCN(C(=O)N3CCCCC3)C1)N2 (stereo unspecified)	68	1800	152	–	–
COc1cc2c(cc1-c1cnco1)C(=O)N(C)C1(CCN(C(=O)OC(C)(C)C)C1)N2 (stereo unspecified)	104	970	42	101 (≈ 244 µM)	–
COc1cc2c(cc1-c1cnco1)C(=O)N(C)C1(Cc3ccsc3C1)N2 (stereo unspecified)	96	1900	–	–	–
CCN(CC)C(=O)N1CCC2(C1)Nc1cc(OC)c(-c3cnco3)cc1C(=O)N2C (stereo unspecified)	45	540	92	813 (≈ 1970 µM)	–
COc1cc2c(cc1-c1cnco1)C(=O)N(C)C1(CCN(C(=O)N(C)OC)C1)N2 (stereo unspecified)	79	1900	38	–	–
COc1cc2c(cc1-c1cnco1)C(=O)N(C)C1(CCN(C(=O)N(C)c3ccccc3)C1)N2 (stereo unspecified)	64	860	144	–	–
